How the values were obtained:
[1] = target: T1, HCN4 (Rattus norvegicus, UniProt Q9JKA7); experiment: Effect of HCN4 inhibitor on spontaneous beating rate (calcium transient cycling); assay type: cell-based; details: 3 μM ivabradine
T1 construct: endogenous in cells; host or cells: NRVMs (primary neonatal rat ventricular cardiomyocytes) on silk fibroin film or fibronectin control
T1 sequence (Q9JKA7 1-1198): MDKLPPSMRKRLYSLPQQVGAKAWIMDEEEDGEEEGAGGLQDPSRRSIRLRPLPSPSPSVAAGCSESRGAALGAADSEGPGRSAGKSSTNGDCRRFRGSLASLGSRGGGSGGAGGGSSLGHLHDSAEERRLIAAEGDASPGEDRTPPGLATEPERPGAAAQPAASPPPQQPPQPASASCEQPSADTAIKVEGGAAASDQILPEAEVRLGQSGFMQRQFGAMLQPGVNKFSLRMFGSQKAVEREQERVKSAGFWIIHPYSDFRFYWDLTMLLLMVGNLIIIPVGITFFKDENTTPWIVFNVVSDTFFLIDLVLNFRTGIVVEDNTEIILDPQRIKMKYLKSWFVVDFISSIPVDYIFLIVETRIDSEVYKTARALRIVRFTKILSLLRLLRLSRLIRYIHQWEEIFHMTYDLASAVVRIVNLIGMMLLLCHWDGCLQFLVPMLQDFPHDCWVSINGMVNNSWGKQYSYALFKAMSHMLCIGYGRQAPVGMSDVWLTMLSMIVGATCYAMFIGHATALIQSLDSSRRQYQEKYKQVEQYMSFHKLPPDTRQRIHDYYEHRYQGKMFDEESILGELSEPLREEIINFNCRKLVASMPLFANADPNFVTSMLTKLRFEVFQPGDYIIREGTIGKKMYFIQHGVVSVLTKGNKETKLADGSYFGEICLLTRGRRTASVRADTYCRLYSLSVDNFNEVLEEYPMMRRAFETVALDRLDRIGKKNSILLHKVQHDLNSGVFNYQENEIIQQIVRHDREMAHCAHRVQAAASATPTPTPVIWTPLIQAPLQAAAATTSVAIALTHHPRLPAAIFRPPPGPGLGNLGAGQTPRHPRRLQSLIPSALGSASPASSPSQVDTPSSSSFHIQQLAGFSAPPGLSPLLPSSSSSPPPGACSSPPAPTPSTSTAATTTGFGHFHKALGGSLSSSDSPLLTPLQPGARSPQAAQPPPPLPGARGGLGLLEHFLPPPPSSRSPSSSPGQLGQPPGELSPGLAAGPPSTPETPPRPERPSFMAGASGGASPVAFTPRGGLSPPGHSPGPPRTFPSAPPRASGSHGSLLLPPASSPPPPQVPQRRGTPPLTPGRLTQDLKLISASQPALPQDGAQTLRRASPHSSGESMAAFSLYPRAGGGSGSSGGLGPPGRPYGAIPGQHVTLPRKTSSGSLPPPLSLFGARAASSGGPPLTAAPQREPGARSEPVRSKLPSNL
Experimental: (§1) Seeded cardiomyocytes in Tyrode's solution were loaded with Ca^2+ indicators (10 μM Fluo-3/AM for cardiomyocytes; Calbiochem, San Diego, CA, USA) and incubated at room temperature for 30 minutes in the dark. Fluorescence imaging was performed with a laser scanning confocal microscope (Olympus IX71, Olympus America). The fluorescence density (F) was normalized against the baseline fluorescence (F0) to determine the transient [Ca^2+]i changes, which had excluded variations in the fluorescence intensity because of different volumes of injected dye. Offline analysis was performed using Olympus IX71 and ImageJ.
The spontaneous beating is tightly regulated by HCN4 channels in native SAN pacemakers. Therefore, in this example, cells from Example 1 were treated with 3 μM ivabradine, a selective HCN4 inhibitor, to evaluate the impact of HCN4 on the function of SF-treated cardiomyocytes.

[2] = tested on: β-adrenergic receptor; experiment: Sympathetic stimulation of beating rate with isoproterenol; assay type: cell-based, rat; details: 1 μM isoproterenol
Experimental: as §1
Isoproterenol is a non-selective β-adrenergic receptor agonist, which is used for pharmacological sympathetic stimulation to evaluate the physiological sympathetic regulation of sinus node. In this example, the functional regulations of autonomic neurotransmitters in SF-treated cardiomyocytes were investigated using the isoproterenol treatment (1 μM).

| Structure (SMILES) | suppression of beating rate (cycling rate of spontaneous calcium transient) ([1]; SF-treated cardiomyocytes, vs baseline, n=15, P=0.002) [%] | beating rate vs baseline ([1]; control cells, n=32, P=0.24) | beating rate ([2]; SF-treated cardiomyocytes, n=10, P=0.001 vs control) [bpm] | increment of beating rate without vs with isoproterenol ([2]; SF-treated cells, n=10, P=0.02 vs control) [bpm] | beating rate ([2]; control cells) [bpm] | increment of beating rate without vs with isoproterenol ([2]; control cells) [bpm] |
| --- | --- | --- | --- | --- | --- | --- |
| COc1cc2c(cc1OC)CC(=O)N(CCCN(C)C[C@H]1Cc3cc(OC)c(OC)cc31)CC2 [ivabradine] | 57 | did not differ significantly | – | – | – | – |
| CC(C)NCC(O)c1ccc(O)c(O)c1 (stereo not drawn) [isoproterenol] | – | – | 162.4±9.6 | 87.1±12.4 | 87.6±14.7 | 49.2±8.3 |
